Results: patent US12091426B2, “Bifunctional degraders of hematopoietic progenitor kinase and therapeutic uses thereof” (Nurix Therapeutics, Inc., priority 2021, dated 2024)

Target: T1, HPK1 (Homo sapiens, UniProt Q92918)
T1 construct: A HiBiT tag was introduced by CRISPR on the N terminus of HPK1 in Jurkat cells; host or cells: Jurkat cells (ATCC TIB-152), monoclonal line with CRISPR knock-in of HiBiT at the endogenous HPK1 locus
Assay: HPK1 Cellular HiBit Degradation Assay
Assay type: cell-based
Details: HiBiT HPK1 Jurkat cells, 24 hrs; for DC50: concentration at which 50% of HPK1 was remaining, read-out: DC50 Category; for Dmax: Jurkat, read-out: Dmax Category
In short: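 HPK1 levels are read by HiBiT luminescence after 24 h exposure of HiBiT-knock-in Jurkat cells to compound at 10 uM–0.1 nM final (11 points). Relative to DMSO (100%), DC50 is the concentration leaving 50% HPK1 from a variable-slope fit, and Dmax is 100 minus minimum remaining. Viability checked in-plate.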

[1] = maximum degradation vs DMSO vehicle control

T1 sequence (Q92918 whole entry): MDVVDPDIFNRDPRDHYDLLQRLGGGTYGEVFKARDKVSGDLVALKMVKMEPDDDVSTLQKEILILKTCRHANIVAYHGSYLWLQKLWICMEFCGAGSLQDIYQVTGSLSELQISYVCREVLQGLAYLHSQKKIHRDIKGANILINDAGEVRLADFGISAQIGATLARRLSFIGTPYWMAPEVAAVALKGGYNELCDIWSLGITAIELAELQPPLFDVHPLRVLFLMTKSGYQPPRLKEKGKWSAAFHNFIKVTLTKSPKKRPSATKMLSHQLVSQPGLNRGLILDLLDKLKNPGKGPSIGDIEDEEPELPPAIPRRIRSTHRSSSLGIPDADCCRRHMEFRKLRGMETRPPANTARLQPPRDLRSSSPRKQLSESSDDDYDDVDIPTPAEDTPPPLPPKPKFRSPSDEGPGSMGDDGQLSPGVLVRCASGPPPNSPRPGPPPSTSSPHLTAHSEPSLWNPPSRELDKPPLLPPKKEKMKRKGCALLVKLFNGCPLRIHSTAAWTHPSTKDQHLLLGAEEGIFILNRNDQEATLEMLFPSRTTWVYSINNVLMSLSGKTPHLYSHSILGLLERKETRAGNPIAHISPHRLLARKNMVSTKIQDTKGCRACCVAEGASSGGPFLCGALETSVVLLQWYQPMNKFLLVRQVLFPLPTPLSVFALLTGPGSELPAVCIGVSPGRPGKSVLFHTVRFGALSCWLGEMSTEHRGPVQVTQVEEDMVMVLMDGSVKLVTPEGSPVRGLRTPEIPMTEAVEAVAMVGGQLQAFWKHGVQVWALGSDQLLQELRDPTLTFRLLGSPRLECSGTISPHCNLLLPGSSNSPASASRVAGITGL

| SMILES | DC50 [nM] | Dmax [1] [%] | Dmax Category [1] |
| --- | --- | --- | --- |
| CC(C)n1cnc2cc(-c3ccc4c(c3)N([C@H]3C[C@@H](N5CCCCC5)C3)C(=O)C43CCN(C(=O)C4(C)CCN(C(=O)[C@H]5CC[C@H](Oc6ccc(C7CCC(=O)NC7=O)cn6)CC5)CC4)CC3)nc(NC3CC3)c21 (mixture of isomers) [Example 104, (3RS)-3-(6-{[(1R,4R)-4-[4-({6-[4-(cyclopropylamino)-3-(propan-2-yl)-3H-imidazo[4,5-c]pyridin-6-yl]-2-oxo-1-[(1S,3S)-3-(piperidin-1-yl)cyclobutyl]-1,2-dihydrospiro[indole-3,4′-piperidin]-1′-yl}carbonyl)-4-methylpiperidine-1-carbonyl]cyclohexyl]oxy}pyridin-3-yl)piperidine-2,6-dione] | < 100 | 70 to 85 | – |
| CC(C)n1cnc2cc(-c3ccc4c(c3)N(C3CC(N5CCCCC5)C3)C(=O)C43CCN(C(=O)C4CCC(C(=O)N5CCC(COc6ccc(C7CCC(=O)NC7=O)cc6)CC5)CC4)CC3)nc(NC3CC3)c21 (racemic) [Example 230, (3RS)-3-[4-({1-[(1R,4R)-4-({6-[4-(cyclopropylamino)-3-(propan-2-yl)-3H-imidazo[4,5-c]pyridin-6-yl]-2-oxo-1-[(1S,3S)-3-(piperidin-1-yl)cyclobutyl]-1,2-dihydrospiro[indole-3,4′-piperidin]-1′-yl}carbonyl)cyclohexanecarbonyl]piperidin-4-yl}methoxy)phenyl]piperidine-2,6-dione] | < 100 | – | C (C: >50%-<70%) |
| CC(C)n1cnc2cc(-c3ccc4c(c3)N([C@H]3C[C@@H](N5CCCCC5)C3)C(=O)C43CCN(C(=O)C4CCC5(CC4)CCN(C(=O)C4CCN(c6ccc(C7CCC(=O)NC7=O)cn6)CC4)CC5)CC3)nc(NC3CC3)c21 (mixture of isomers) [Example 295, (3RS)-3-(6-{4-[9-({6-[4-(cyclopropylamino)-3-(propan-2-yl)-3H-imidazo[4,5-c]pyridin-6-yl]-2-oxo-1-[(1S,3S)-3-(piperidin-1-yl)cyclobutyl]-1,2-dihydrospiro[indole-3,4′-piperidin]-1′-yl}carbonyl)-3-azaspiro[5.5]undecane-3-carbonyl]piperidin-1-yl}pyridin-3-yl)piperidine-2,6-dione] | 100 to 500 | 70 to 85 | – |
| CC(C)n1cnc2cc(-c3ccc4c(c3)N([C@H]3C[C@@H](N5CCCCC5)C3)C(=O)C43CCN(C(=O)[C@]4(C)CCN(C(=O)C5CCN(c6ccc([C@@H]7CCC(=O)NC7=O)cc6)CC5)C4)CC3)nc(NC3CC3)c21 (racemic) [Example 244, (3RS)-3-(4-{4-[(3R)-3-({6-[4-(cyclopropylamino)-3-(propan-2-yl)-3H-imidazo[4,5-c]pyridin-6-yl]-2-oxo-1-[(1S,3S)-3-(piperidin-1-yl)cyclobutyl]-1,2-dihydrospiro[indole-3,4′-piperidin]-1′-yl}carbonyl)-3-methylpyrrolidine-1-carbonyl]piperidin-1-yl}phenyl)piperidine-2,6-dione] | < 100 | 70 to 85 | – |
| CC(C)n1cnc2cc(-c3ccc4c(c3)N([C@H]3C[C@@H](N5CCCCC5)C3)C(=O)C43CCN(C(=O)C45CCC(C)(C4)N(C(=O)C4CCN(c6ccc(C7CCC(=O)NC7=O)cn6)CC4)C5)CC3)nc(NC3CC3)c21 (mixture of isomers) [Example 251, (3RS)-3-(6-{4-[4-({6-[4-(cyclopropylamino)-3-(propan-2-yl)-3H-imidazo[4,5-c]pyridin-6-yl]-2-oxo-1-[(1S,3S)-3-(piperidin-1-yl)cyclobutyl]-1,2-dihydrospiro[indole-3,4′-piperidin]-1′-yl}carbonyl)-1-methyl-2-azabicyclo[2.2.1]heptane-2-carbonyl]piperidin-1-yl}pyridin-3-yl)piperidine-2,6-dione] | < 100 | 50 to 70 | – |
| CC(C)n1cnc2cc(-c3ccc4c(c3)N([C@H]3C[C@@H](N5CCCCC5)C3)C(=O)C43CCN(C(=O)C[C@@H]4CCCN(C(=O)C5CCN(c6ccc(C7CCC(=O)NC7=O)cn6)CC5)C4)CC3)nc(NC3CC3)c21 (mixture of isomers) [Example 298, (3RS)-3-(6-{4-[(3S)-3-(2-{6-[4-(cyclopropylamino)-3-(propan-2-yl)-3H-imidazo[4,5-c]pyridin-6-yl]-2-oxo-1-[(1S,3S)-3-(piperidin-1-yl)cyclobutyl]-1,2-dihydrospiro[indole-3,4′-piperidin]-1′-yl}-2-oxoethyl)piperidine-1-carbonyl]piperidin-1-yl}pyridin-3-yl)piperidine-2,6-dione] | 100 to 500 | 50 to 70 | – |
| CC(C)n1cnc2cc(-c3ccc4c(c3)N([C@H]3C[C@@H](N5CCCCC5)C3)C(=O)C43CCN(C(=O)C4CCN(C(=O)C5CCN(c6ccc(C7CCC(=O)NC7=O)cn6)CC5)C5(CC5)C4)CC3)nc(NC3CC3)c21 (mixture of isomers) [Example 269, (3RS)-3-(6-{4-[7-({6-[4-(cyclopropylamino)-3-(propan-2-yl)-3H-imidazo[4,5-c]pyridin-6-yl]-2-oxo-1-[(1S,3S)-3-(piperidin-1-yl)cyclobutyl]-1,2-dihydrospiro[indole-3,4′-piperidin]-1′-yl}carbonyl)-4-azaspiro[2.5]Octane-4-carbonyl]piperidin-1-yl}pyridin-3-yl)piperidine-2,6-dione] | < 100 | 70 to 85 | – |
| CC(C)n1cnc2cc(-c3ccc4c(c3)N([C@H]3C[C@@H](N5CCCCC5)C3)C(=O)C43CCN(C(=O)C4(C)CCN(C(=O)C5CCN(c6ccc(C7CCC(=O)NC7=O)cn6)CC5)CC4)CC3)nc(N3CC(C#N)C3)c21 (stereo partly drawn) [Example 175, 1-{6-[1′-(1-{1-[5-(2,6-dioxopiperidin-3-yl)pyridin-2-yl]piperidine-4-carbonyl}-4-methylpipe-ridine-4-carbonyl)-2-oxo-1-[(1S,3S)-3-(piperidin-1-yl)cyclobutyl]-1,2-dihydrospiro[indole-3,4′-pi-peridin]-6-yl]-3-(propan-2-yl)-3H-imidazo[4,5-c]pyridin-4-yl}azetidine-3-carbonitrile] | < 100 | 70 to 85 | – |
| CC(C)n1cnc2cc(-c3ccc4c(c3)N([C@H]3C[C@@H](N5CCCCC5)C3)C(=O)C43CCN(C(=O)[C@@H]4CCN(C(=O)[C@H]5CC[C@H](Oc6ccc(C7CCC(=O)NC7=O)cc6)CC5)C4)CC3)nc(Nc3ccccc3F)c21 (stereo partly drawn) [Example 14, 3-(4-{[(1R,4R)-4-[(3R)-3-[(6-{4-[(2-fluorophenyl)amino]-3-(propan-2-yl)-3H-imidazo[4,5-c]pyridin-6-yl}-2-oxo-1-[(1S,3S)-3-(piperidin-1-yl)cyclobutyl]-1,2-dihydrospiro[indole-3,4′-piperidin]-1′-yl)carbonyl]pyrrolidine-1-carbonyl]cyclohexyl]oxy}phenyl)piperidine-2,6-dione] | < 100 | > 85 | – |
| CC(C)n1cnc2cc(-c3ccc4c(c3)N([C@H]3C[C@@H](N5CCCCC5)C3)C(=O)C43CCN(C(=O)C4CCN(C(=O)[C@H]5CC[C@H](N(C)c6ccc(C7CCC(=O)NC7=O)cn6)CC5)CC4)CC3)nc(Nc3ccncc3F)c21 (mixture of isomers) [Example 132, (3RS)-3-(6-{methyl[(1R,4R)-4-{4-[(6-{4-[(3-Fluoropyridin-4-yl)amino]-3-(propan-2-yl)-3H-imidazo[4,5-c]pyridin-6-yl}-2-oxo-1-[(1S,3S)-3-(piperidin-1-yl)cyclobutyl]-1,2-dihydrospiro[indole-3,4′-piperidin]-1′-yl)carbonyl]piperidine-1-carbonyl}cyclohexyl]amino}pyridin-3-yl)piperidine-2,6-dione] | < 100 | 50 to 70 | – |
| CC(C)n1cnc2cc(-c3ccc4c(c3)N([C@H]3C[C@@H](N5CCC[C@@H](F)C5)C3)C(=O)C43CCN(C(=O)C4(C)CCN(C(=O)C5CCN(c6ccc(C7CCC(=O)NC7=O)cc6)CC5)CC4)CC3)nc(NC3CC3)c21 (mixture of isomers) [Example 199, (3RS)-3-(4-{4-[4-({6-[4-(cyclopropylamino)-3-(propan-2-yl)-3H-imidazo[4,5-c]pyridin-6-yl]-2-oxo-1-[(1S,3S)-3-[(3R)-3-fluoropiperidin-1-yl]cyclobutyl]-1,2-dihydrospiro[indole-3,4′-piperidin]-1′-yl}carbonyl)-4-methylpiperidine-1-carbonyl]piperidin-1-yl}phenyl)piperidine-2,6-dione] | 100 to 500 | 50 to 70 | – |
| CC(C)n1cnc2cc(-c3ccc4c(c3)N([C@H]3C[C@@H](N5CCCCC5)C3)C(=O)C43CCN(C(=O)[C@H]4[C@@H]5C[C@H]4CN(C(=O)C4CCN(c6ccc(C7CCC(=O)NC7=O)cn6)CC4)C5)CC3)nc(NC3CC3)c21 (stereo partly drawn) [Example 239, 3-(6-(4-((1R,5S,6S)-6-(6-(4-(cyclopropylamino)-3-isopropyl-3H-imidazo[4,5-c]pyridin-6-yl)-2-oxo-1-((1S,3S)-3-(piperidin-1-yl)cyclobutyl)spiro[indoline-3,4′-piperidine]-1′-carbonyl)-3-Azabicyclo[3.1.1]heptane-3-carbonyl)piperidin-1-yl)pyridin-3-yl)piperidine-2,6-dione] | < 100 | 50 to 70 | – |
| CC(C)n1cnc2cc(-c3ccc4c(c3)N([C@H]3C[C@@H](N5CCCCC5)C3)C(=O)C43CCN(C(=O)[C@@H]4CCN(C(=O)[C@H]5CC[C@H](Nc6ccc(C7CCC(=O)NC7=O)cc6)CC5)C4)CC3)nc(Nc3ccncc3F)c21 (stereo partly drawn) [Example 4, 3-(4-(((1R,4R)-4-((R)-3-(6-(4-((3-fluoropyridin-4-yl)amino)-3-isopropyl-3H-imidazo[4,5-c]pyridin-6-yl)-2-oxo-1-((1S,3S)-3-(piperidin-1-yl)cyclobutyl)spiro[indoline-3,4′-piperidine]-1′-carbonyl)pyrrolidine-1-carbonyl)cyclohexyl)amino)phenyl)piperidine-2,6-dione] | < 100 | > 85 | – |
